Experimental data taken from patent publication US20220132758A1, “INTRODUCTION OF ACTIVE SUBSTANCES AND/OR DYE INTO PLANT TISSUE” (priority 2018, published 2022).

Tested on: bark beetle
Experiment: Imidacloprid-impregnated beech shaped pieces shot into bark beetle-infested spruce trees
Type: in vivo
Details: 7% imidacloprid solution; 8 pieces per tree; after 3 weeks; bark 10 to 50 cm above the shooting sites
Protocol: 24 shaped pieces according to FIG. 1c, Z-. X-. Y-direction 45×13×3 mm, angle α 90°, angle β 60°, made of beech wood (Fagus sylvatica) were impregnated with a neonicotinoid, a 7% imidacloprid solution (solvent dichloromethane) and then dried. The chips were shot 8 at a time into bark beetle-infested spruce trees using a gas cramping device (Alsafix AGRAFEUSE SANS FIL 12GASCR). After 3 weeks, the bark in the region 10 to 50 cm above the shooting sites was removed and the feeding tunnels exposed.

O=[N+]([O-])NC1=NCCN1Cc1ccc(Cl)nc1 [imidacloprid]
living larvae in feeding tunnels: No living larvae were found
